Data as given in patent publication US20200078363A1, “POST-SURGICAL PAIN TREATMENT” (Heron Therapeutics, Inc., priority 2018, published 2020).

System: post-surgical incisional (post-operative or POP) pain
Test: Post-operative (POP) pain porcine model, von Frey test
Assay type: in vivo
Settings: Group 1: IV aprepitant 6 mg/kg once prior to surgery and daily for 5 days after surgery, no other medication; 4 pigs
Description: Example 1 describes three studies conducted to evaluate the capacity to reduce post-surgical incisional (post-operative or POP) pain in a porcine model system. Using a post-operative (POP) pain porcine model system, where a 7 cm long skin and fascia incision was made in the left flank under general anesthesia to pigs, NK-1 receptor antagonist alone or in combination with pain medication (i.e., bupivacaine and meloxicam) were applied to the wound. The skin incision was then closed using sterile sutures. Various methods were evaluated for their capacity to reduce post-surgical incisional (post-operative or POP) pain in a porcine model system. […] All studies described below evaluated 4 pigs per group. Post-operative pain was assessed using the von Frey methodology. […] By alternating the filament thickness, the gram force required to achieve withdrawal reaction was determined and recorded. […] Several studies evaluated emulsion compositions containing aprepitant (diluted 1:7) with saline, administered by intravenous infusion dosed at 6 mg/kg as a slow bolus via an IV catheter in the ear. […] Analgesia was evaluated by response in the von Frey test, as described above. […] By following similar procedures described in Example 1, the analgesic effect of a lower dose of aprepitant (i.e., lower than 6.0 mg/kg) was evaluated. […]

For `C[C@@H](O[C@H]1OCCN(Cc2n[nH]c(=O)[nH]2)[C@H]1c1ccc(F)cc1)c1cc(C(F)(F)F)cc(C(F)(F)F)c1` [aprepitant], the “analgesia, von Frey response (withdrawal force)” value was “little analgesic response”.
